Reference: patent publication US12655107B2 (The United States of America, as represented by the …, priority 2018, dated 2026)
Where two headings read alike, the source gives them in different places.

Experiments:
Tdp1 [1] = biological target: T1, Tdp1 (Homo sapiens, UniProt Q9NUW8); settings: reported in the background; cited from earlier work
Top1 = biological target: T2, Top1 (Homo sapiens, UniProt P11387); experiment: Top1-mediated DNA cleavage assay; assay type: biochemical; settings: graded relative to CPT at 1 μM, Table 7
T2 sequence (P11387 1-765): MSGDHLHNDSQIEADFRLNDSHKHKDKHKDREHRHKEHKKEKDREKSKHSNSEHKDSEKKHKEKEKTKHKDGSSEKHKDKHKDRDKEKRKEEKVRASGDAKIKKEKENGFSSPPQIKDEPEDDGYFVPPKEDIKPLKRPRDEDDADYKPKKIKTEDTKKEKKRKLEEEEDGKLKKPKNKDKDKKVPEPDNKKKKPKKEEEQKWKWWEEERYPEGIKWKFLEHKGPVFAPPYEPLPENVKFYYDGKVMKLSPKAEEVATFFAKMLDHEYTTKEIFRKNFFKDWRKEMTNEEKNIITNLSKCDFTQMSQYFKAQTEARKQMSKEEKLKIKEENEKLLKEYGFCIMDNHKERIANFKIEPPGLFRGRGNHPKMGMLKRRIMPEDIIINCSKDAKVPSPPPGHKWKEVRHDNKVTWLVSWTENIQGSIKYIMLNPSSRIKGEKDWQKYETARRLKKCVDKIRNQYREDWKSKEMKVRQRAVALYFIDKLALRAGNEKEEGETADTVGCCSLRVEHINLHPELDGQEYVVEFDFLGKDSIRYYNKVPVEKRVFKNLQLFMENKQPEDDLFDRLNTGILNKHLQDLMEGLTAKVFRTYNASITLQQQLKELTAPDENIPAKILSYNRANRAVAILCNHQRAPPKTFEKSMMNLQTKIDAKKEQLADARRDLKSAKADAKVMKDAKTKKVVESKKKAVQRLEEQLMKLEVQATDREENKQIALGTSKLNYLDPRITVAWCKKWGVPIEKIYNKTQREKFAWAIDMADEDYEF

HCT116 = experiment: MTT cytotoxicity assay, HCT116; assay type: cell-based, human; settings: 72 h
Procedure: (§1) Cytotoxicity Assays. […] The cells were incubated with the tested compounds for 72 hours in a five-dose assay ranging from 0.01 to 100 μM concentration. After drug treatments, MTT solution was added to test the percentage growth of tumor cells.
(§2) The compounds were incubated with the cells for 72 hours in a five-dose assay ranging from 0.01 to 100 μM concentration. At the end of the incubation, the MTT solution was added to test the percentage growth of tumor cells.
(§3) For the drug treatment experiments, the cancer cells were treated with the compounds (predissolved in DMSO) at a five-dose assay ranging from 0.01 to 100 μM concentration. […] After 4 h incubation, the formazan crystal formed in the well was dissolved with […] of DMSO for optical density reading at 570 nm. The GI50 value was calculated by nonlinear regression analysis (GraphPad Prism).

DU145 = experiment: MTT cytotoxicity assay, DU145; assay type: cell-based, human; settings: 72 h
Procedure: as §1, §2, §3

A549 = experiment: MTT cytotoxicity assay, A549; assay type: cell-based, human; settings: 72 h
Procedure: as §1, §2, §3

MCF-7 = experiment: MTT cytotoxicity assay, MCF-7; assay type: cell-based, human; settings: 72 h, Table 7, read-out: GI50 ± SC (μM) MCF-7
Procedure: as §2, §3

Tdp1 [2] = biological target: T1, Tdp1; experiment: Tdp1 inhibition fluorescence assay; assay type: biochemical; settings: compounds at 100 μM
Procedure: Tdp Inhibition. […] The compounds were tested at 100 μM concentration. […] Fluorescence assay. […] Tdp1 solution (20 μL/well, 0.02 μL purified Tdp1 (100 nM) in 10 mM Tris-HCl, pH 7.5, 50 mM KCL, I mM EDTA, 1 mM DTT) was dispensed into wells of a white 384-well plate (NEST). The tested compound solution in DMSO (5 μL) was pinned into assay plates and incubated at room temperature for 30 min. […] Tdp percentage inhibition of the tested compounds was calculated by comparing the rate of increase in fluorescence throughout time for the compound-treated wells to that of DMSO control wells.

CCRF-CEM = experiment: MTT cytotoxicity assay, CCRF-CEM; assay type: cell-based, human; settings: 72 h, Table 1b
Procedure: as §1, §3

Huh7 = experiment: MTT cytotoxicity assay, Huh7; assay type: cell-based, human; settings: 72 h, Table 1b
Procedure: as §1, §3

[3] = Table 7, read-out: GI50 ± SC (μM) HCT116
[4] = Table 7, read-out: GI50 ± SC (μM) DU145
[5] = Table 7, read-out: GI50 ± SC (μM) A-49

T1 sequence (Q9NUW8 whole entry): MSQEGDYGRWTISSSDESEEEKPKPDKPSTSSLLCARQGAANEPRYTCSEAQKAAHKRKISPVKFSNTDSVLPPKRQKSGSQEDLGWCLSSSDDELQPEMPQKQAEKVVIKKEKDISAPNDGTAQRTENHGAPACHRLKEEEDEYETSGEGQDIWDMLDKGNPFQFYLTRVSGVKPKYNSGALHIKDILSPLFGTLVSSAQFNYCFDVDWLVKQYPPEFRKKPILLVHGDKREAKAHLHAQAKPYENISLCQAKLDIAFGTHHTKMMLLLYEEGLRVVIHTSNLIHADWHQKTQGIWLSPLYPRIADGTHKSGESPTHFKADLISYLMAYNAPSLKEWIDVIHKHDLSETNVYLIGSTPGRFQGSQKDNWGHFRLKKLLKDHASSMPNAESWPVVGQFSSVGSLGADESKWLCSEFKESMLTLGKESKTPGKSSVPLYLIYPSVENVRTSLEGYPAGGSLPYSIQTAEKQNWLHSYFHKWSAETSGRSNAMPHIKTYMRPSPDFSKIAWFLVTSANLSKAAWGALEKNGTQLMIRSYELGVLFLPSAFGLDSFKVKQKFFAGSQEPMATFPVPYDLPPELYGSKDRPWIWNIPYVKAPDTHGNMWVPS

Molecule | Tdp1 inhibition (Tdp1 [1]) | TOP1 inhibition (Top1) | GI50 (HCT116; [3]) [µM] | GI50 (DU145; [4]) [µM] | GI50 (A549; [5]) [µM] | GI50 (MCF-7) [µM] | TDP1 inhibition (Tdp1 [2]) [%] | GI50 (HCT116; Table 1b, read-out: GI50 (μM) HCT116) [µM] | GI50 (CCRF-CEM) [µM] | GI50 (DU145; Table 1b, read-out: GI50 (μM) DU145) [µM] | GI50 (A549; Table 1b, read-out: GI50 (μM) A549) [µM] | GI50 (Huh7) [µM]
[Na+].[Na+].[Na+].[O]=[V]([O-])([O-])[O-] [sodium orthovanadate] | inhibition only at millimolar concentration |  |  |  |  |  |  |  |  |  |  | 
N-(2-(2,3-dimethoxy-13-oxo-[1,3]dioxolo[4′,5′:4,5]benzo[1,2-c]phenanthridin-12(13H)-yl)ethyl)-N-methyldiethylamine-1-sulfonamide [Compound 53] |  | + (+, between 20% and 50% activity) | 0.96 ± 0.04 | 15 ± 0.59 | 7.9 ± 0.23 | 1.5 ± 0.15 |  |  |  |  |  | 
COc1cc2c(=O)n(CCN(C)S(=O)(=O)N3CCOCC3)c3c4cc5c(cc4ccc3c2cc1OC)OCO5 [Compound 55, N-(2-(2,3-dimethoxy-13-oxo-[1,3]dioxolo[4′,5′:4,5]benzo[1,2-c]phenanthridin-12(13H)-yl)ethyl)-N-methylmorpholine-4-sulfonamide] |  | + (+, between 20% and 50% activity) | 40 ± 1.2 | 48 ± 1.2 | 35 ± 2.5 | 64 ± 0.57 |  |  |  |  |  | 
COc1cc2c(cc1OC)-c1ccc3cc4c(cc3c1N(CCN1CCCC1)C2)OCO4 [Compound 28a, 2,3-Dimethoxy-12-(2-(pyrrolidin-1-yl)ethyl)-12,13-dihydro-[1,3]dioxolo[4′,5′:4,5]benzo[1,2-c]phenanthrdine] |  |  |  |  |  |  | 0 | 4.25 ± 3.11 | 1.25 ± 0.18 | 2.04 ± 0.41 | 6.59 ± 1.29 | 8.07 ± 1.3
COc1cc2c(=O)n(CCNS(=O)(=O)C3CC3)c3c4cc5c(cc4ccc3c2cc1OC)OCO5 [Compound 58, N-(2-(2,3-dimethoxy-13-oxo-[1,3]dioxolo[4′,5′:4,5]benzo[1,2-c]phenanthridin-12(13H)-yl)ethyl)cyclopropanesulfonamide] |  | ++ (++, between 50% and 75% activity) | 5.2 ± 0.13 | 1.3 ± 0.32 | 4.3 ± 0.21 | 3 ± 0.63 |  |  |  |  |  | 
